Measurements published in PMC6433232, “Targeting mitochondria in cancer therapy could provide a basis for the selective anti-cancer activity” (PLoS ONE, 2019).
“And” between values parts separate entries of the source, which are not always exact repeats. Equal entries are not always repeated. Where two headings read alike, the source gives them in different places.

Tested on: primary acute myeloid leukemia (AML) cells obtained from patients
Assay: Kinase inhibitor library screening with and without NSC130362, primary AML cells
Assay type: cell-based, Human
[1] = ratio of EC50 for inhibitor to EC50 for inhibitor/NSC130362 combination, NSC130362 10 μM, Screen N 2
[2] = ratio of EC50 for inhibitor to EC50 for inhibitor/NSC130362 combination, NSC130362 10 μM, Screen N 1
[3] = ratio of EC50 for inhibitor to EC50 for inhibitor/NSC130362 combination, NSC130362 10 μM, Screen N 3

Compound	EC50 decrease, fold (Screen N 2) [1] [fold]	EC50 decrease, fold (Screen N 1) [2] [fold]	EC50 decrease, fold (Screen N 3) [3] [fold]	EC50 decrease, fold (Screen N 1)	EC50 decrease, fold (Screen N 2) [fold]	EC50 decrease, fold (Screen N 3) [fold]
Nc1ncnc2c1nc(Cl)n2[C@@H]1O[C@H](CO)[C@@H](O)[C@H]1O [8-cl-Adenosine]	1.0	–	–	–	–	–
C=CCNC1=C2C[C@@H](C)C[C@H](OC)[C@H](O)[C@@H](C)/C=C(\C)[C@H](OC(N)=O)[C@@H](OC)/C=C\C=C(/C)C(=O)NC(=CC1=O)C2=O [17-AAG (Tanespimycin)]	12.1	10.6	612.9	–	–	–
Cc1[nH]nc2ccc(-c3cncc(OC[C@@H](N)Cc4ccccc4)c3)cc12 [A-674563]	1.2	3.1	6.2	–	–	–
CC1(C)CCC(CN2CCN(c3ccc(C(=O)NS(=O)(=O)c4ccc(NCC5CCOCC5)c([N+](=O)[O-])c4)c(Oc4cnc5[nH]ccc5c4)c3)CC2)=C(c2ccc(Cl)cc2)C1 [ABT-199 (BH3 mimetic)]	1.0	7.4	9.4	–	–	–
CN(C)CC[C@H](CSc1ccccc1)Nc1ccc(S(=O)(=O)NC(=O)c2ccc(N3CCN(Cc4ccccc4-c4ccc(Cl)cc4)CC3)cc2)cc1[N+](=O)[O-] [ABT-737]	1.0	5.4	0.000857	–	–	–
Cc1ccccc1C(C(=O)NC1CCCCC1)N(C(=O)Cn1ccnc1C)c1cccc(F)c1 (stereo not shown) [AGI-5198]	1.0	1.0	0.16	–	–	–
O=C(Nc1cccc(C(F)(F)F)c1)Nc1cc(S(=O)(=O)NC2CC2)ccc1-c1ccsc1 [AGI-6780]	1.0	1.0	17.0	–	–	–
Cc1[nH]c2ccc(F)cc2c1-c1nc2c3cccnc3c3ncccc3c2[nH]1 [APTO-253]	1.0	–	–	–	–	–
O=C(NC1CCNCC1)c1[nH]ncc1NC(=O)c1c(Cl)cccc1Cl [AT7519]	2.2	9.7	1.1	–	–	–
Oc1ccc([C@H]2COc3cc(O)ccc3C2)cc1 [AUS-131]	1.0	–	–	–	–	–
Cc1cc(Nc2nc(N[C@@H](C)c3ncc(F)cn3)ncc2Cl)n[nH]1 [AZD1480]	1.0	497.3	0.365	–	–	–
CN(C)C/C=C/C(=O)Nc1cc2c(Nc3ccc(F)c(Cl)c3)ncnc2cc1O[C@H]1CCOC1 [Afatinib (BIBW-2992)]	–	–	–	0.5 fold	1.2	18.4
COc1cc(Nc2ncc3c(n2)-c2ccc(Cl)cc2C(c2c(F)cccc2OC)=NC3)ccc1C(=O)O [Alisertib (MLN8237)]	1.0	1.0	0.3	–	–	–
Nc1ncn([C@@H]2O[C@H](CO)[C@@H](O)[C@H]2O)c(=O)n1 [Azacytidine]	1.0	1.1	266.4	–	–	–
Cn1c(=O)n(-c2ccc(C(C)(C)C#N)cc2)c2c3cc(-c4cnc5ccccc5c4)ccc3ncc21 [BEZ235]	0.7	4.0	8.8	–	–	–
Cc1ccc2nc(NCCN)c3ncc(C)n3c2c1 [BMS-345541]	1.0	1.2	0.01	–	–	–
CCN(CCO)CCCOc1ccc2c(Nc3cc(CC(=O)Nc4cccc(F)c4)[nH]n3)ncnc2c1 [Barasertib (AZD1152-HQPA)]	1.0	1.0	642.8	–	–	–
CC(C)(C)c1ccc(S(=O)(=O)/C=C/C#N)cc1 [Bay 11-7085]	1.0	69.0	221.9	–	–	–
COc1cc(Nc2c(C#N)cnc3cc(OCCCN4CCN(C)CC4)c(OC)cc23)c(Cl)cc1Cl [Bosutinib (SKI-606)]	1.0	15.8	29.6	–	–	–
COc1cc(N2CCC(N3CCN(C)CC3)CC2)ccc1Nc1ncc(Cl)c(Nc2ccccc2P(C)(C)=O)n1 [Brigatininb (AP-26113)]	–	0.0179	1.8	–	–	–
Cc1c[nH]c(-c2cnc(NCCNc3ccc(C#N)cn3)nc2-c2ccc(Cl)cc2Cl)n1 [CHIR-99021]	1.0	1.0	1.0	–	–	–
O=C(NOCC1CC1)c1ccc(F)c(F)c1Nc1ccc(I)cc1Cl [CI-1040 (PD184352)]	1.0	0.9	0.0667	–	–	–
Cc1noc2c1-c1ccccc1C(c1ccc(Cl)cc1)=N[C@H]2CC(N)=O [CPI-0610]	0.8	–	–	–	–	–

Compound	EC50 decrease, fold (Screen N 2) [1] [fold]	EC50 decrease, fold (Screen N 1) [2] [fold]	EC50 decrease, fold (Screen N 3) [3] [fold]	EC50 decrease, fold (Screen N 1)	EC50 decrease, fold (Screen N 2) [fold]	EC50 decrease, fold (Screen N 3) [fold]
N#CCNC(=O)c1ccc(-c2ccnc(Nc3ccc(N4CCOCC4)cc3)n2)cc1 [CYT387]	1.0	0.117	320.1	–	–	–
COc1cc2nccc(Oc3ccc(NC(=O)C4(C(=O)Nc5ccc(F)cc5)CC4)cc3)c2cc1OC [Cabozantinib (XL-184)]	1.0	3.2	0.259	–	–	–
C=CC(=O)Nc1cc2c(Nc3ccc(F)c(Cl)c3)ncnc2cc1OCCCN1CCOCC1 [Canertinib (CI-1033)]	0.7	2.8	424.3	–	–	–
COc1cc2c(Oc3ccc4[nH]c(C)cc4c3F)ncnc2cc1OCCCN1CCCC1 [Cediranib (AZD2171)]	1.0	8.3	0.00538	–	–	–
O=C(c1ccc(F)c(F)c1Nc1ccc(I)cc1F)N1CC(O)([C@@H]2CCCCN2)C1 [Combimetinib (GDC-0973)]	0.6	–	–	–	–	–
C[C@@H](Oc1cc(-c2cnn(C3CCNCC3)c2)cnc1N)c1c(Cl)ccc(F)c1Cl [Crizotinib (PF-2341066)]	–	–	–	11.4 fold and 6.3 fold	1.0	–
Nc1ccn([C@@H]2O[C@H](CO)[C@@H](O)[C@@H]2O)c(=O)n1 [Cytarabine]	1.0	28.6	0.132	–	–	–
C[C@H](NC(=O)Cc1cc(F)cc(F)c1)C(=O)N[C@@H]1C(=O)N(C)c2ccccc2-c2ccccc21 [DBZ]	1.0	0.951	0.374	–	–	–
Cc1nc(Nc2ncc(C(=O)Nc3c(C)cccc3Cl)s2)cc(N2CCN(CCO)CC2)n1 [Dasatinib]	1.0	–	–	–	–	–
Cc1ccc(-n2nc(C(C)(C)C)cc2NC(=O)Nc2ccc(OCCN3CCOCC3)c3ccccc23)cc1 [Doramapimod (BIRB 796)]	1.0	0.15	511.2	–	–	–
CN1CCN(c2ccc3nc(-c4c(N)c5c(F)cccc5[nH]c4=O)[nH]c3c2)CC1 [Dovitinib (CHIR-258)]	1.0	2.6	96.7	–	–	–
CN(NC(=O)CC(=O)NN(C)C(=S)c1ccccc1)C(=S)c1ccccc1 [Elesclomol]	302.2	1.1	1.1	–	–	–
c1cn2cc(-c3ccc4cn[nH]c4c3)nc(Nc3ccc(N4CCOCC4)cc3)c2n1 [Entospletinib (GS-9973)]	1.0	16.8	0.131	–	–	–
C#Cc1cccc(Nc2ncnc3cc(OCCOC)c(OCCOC)cc23)c1 [Erlotinib]	1.0	–	–	–	–	–
CN1CC[C@H](c2c(O)cc(O)c3c(=O)cc(-c4ccccc4Cl)oc23)[C@H](O)C1 [Flavopiridol]	1.1	2.0	0.0683	–	–	–
COc1cc2c(Oc3ccc(NC(=O)C4(C(=O)Nc5ccc(F)cc5)CC4)cc3F)ccnc2cc1OCCCN1CCOCC1 [Foretinib (XL880)]	1.0	0.666	2.2	–	–	–
N[C@@H]1CCCN(c2c(Br)cnc3[nH]cc(NC(=O)C4CC4)c23)C1 [GDC-0575]	1.0	–	–	–	–	–
OCCn1cc(-c2ccc3c(c2)CC/C3=N\O)c(-c2ccncc2)n1 [GDC-0879]	1.0	0.9	952.6	–	–	–
Cn1nccc1Nc1nccc(-c2ccn([C@H](CO)c3ccc(Cl)c(F)c3)c(=O)c2)n1 [GDC-0994]	1.0	–	–	–	–	–
CC[C@H](Nc1ncnc2[nH]cnc12)c1nc2cccc(F)c2c(=O)n1-c1ccccc1 [GS-1101 (CAL-101)]	1.0	506.3	356.4	–	–	–
CCn1c(-c2nonc2N)nc2c(C#CC(C)(C)O)ncc(OC[C@H]3CCCNC3)c21 [GSK690693]	1.0	0.165	1.1	–	–	–
CNC(=O)c1c(F)cccc1Nc1nc(Nc2cc3c(cc2OC)CCN3C(=O)CN(C)C)nc2[nH]ccc12 [GSK-1838705A]	1.0	257.7	522.0	–	–	–
